This passage reports EC90 results from patent US20090209457A1, “TREATMENT OF ANTI-ERYTHROPOIETIN ANTIBODY-MEDIATED DISORDERS WITH SYNTHETIC PEPTIDE-BASED EPO RECEPTOR AGONISTS” (Affymax, Inc., priority 2008, published 2009).

Bridge positions count the residues as written; N and C are the ends. Square brackets hold non-standard residues; d marks the D form. Ends that are not written are not given here. 1Nal = N[C@@H](Cc1cccc2ccccc12)C(=O)O; Sar = CNCC(=O)O

This assay concerns human, bone marrow derived CD34+ cells. Kind of assay: C/BFU-e assay (erythroid colonies). Format: cell-based. As to conditions: Table 6, 14 days. On the procedure:
EPO-R signaling stimulates the differentiation of bone marrow stem cells into proliferating red blood cell precursors. This assay measures the ability of test peptides to stimulate the proliferation and differentiation of red blood cell precursors from primary human bone marrow pluripotent stem cells.
For this assay, serial dilutions of test peptide are made in IMDM medium (Gibco) supplemented with 10% FBS (Hyclone). These serial dilutions, or positive control EPO peptide, are then added to methylcellulose to give a final volume of 1.5 mL. The methylcellulose and peptide mixture is then vortexed thoroughly. Aliquots (100,000 cells/mL) of human, bone marrow derived CD34+ cells (Poietics/Cambrex) are thawed. The thawed cells are gently added to 0.1 mL of 1 mg/ml DNAse (Stem Cells) in a 50 mL tube. Next, 40-50 mL IMDM medium is added gently to cells: the medium is added drop by drop along the side of the 50 mL tube for the first 10 mL, and then the remaining volume of medium is slowly dispensed along the side of the tube. The cells are then spun at 900 rpm for 20 min, and the media removed carefully by gentle aspiration. The cells are resuspended in 1 ml of IMDM medium and the cell density per mL is counted on hemacytometer slide (10 μL aliquot of cell suspension on slide, and cell density is the average count×10,000 cells/ml). The cells are then diluted in IMDM medium to a cell density of 15,000 cells/mL. A 100 μL of diluted cells is then added to each 1.5 mL methyl cellulose plus peptide sample (final cell concentration in assay media is 1000 cells/mL), and the mixture is vortexed. Allow the bubbles in the mixture to disappear, and then aspirate 1 mL using blunt-end needle. Add 0.25 mL aspirated mixture from each sample into each of 4 wells of a 24-well plate (Falcon brand). Incubate the plated mixtures at 37° C. under 5% CO2 in a humid incubator for 14 days. Score for the presence of erythroid colonies using a phase microscope (5×-10× objective, final magnification of 100×). The concentration of test peptide at which the number of formed colonies is 90% of maximum, relative to that observed with the EPO positive control, is recorded as the EC90 [See Table 2: C/BFU-e EC90].
For this assay, serial dilutions of test peptide are made in IMDM medium (Gibco) supplemented with 10% FBS (Hyclone). These serial dilutions, or positive control EPO peptide, are then added to methylcellulose to give a final volume of 1.5mL. The methylcellulose and peptide mixture is then vortexed thoroughly. […] The cells are resuspended in 1 ml of IMDM medium and the cell density per mL is counted on hemacytometer slide (10 μL aliquot of cell suspension on slide, and cell density is the average count×10,000 cells/ml). […]

What is called EC90 is the point of the concentration-response curve where the effect stands at 90%. The low end stands for greater potency, the high end for weaker potency. Take “PEGylated homodimer of peptide monomers (AcG)GLYACHMGPIT(1-nal)VCQPLR(MeG)K (SEQ ID NO: 2), EPO-R agonist (Ac-GGLYACHMGPIT[1Nal]VCQPLR[Sar]K; disulfide 6-15 (inferred); not fully specified (residue 21); printed as (AcG)GLYACHMGPIT(1-nal)VCQPLR(MeG)K; also: PEGylated) [Peptide I]”: the EC90 worked out at 3 nM.
